Assay results reported in PubChem BioAssay AID330 (DTP/NCI, 2004).
Several values for one entry are separate records, joined by “and”; a condition that tells them apart may be missing. Equal values may be shown once. Inconclusive results and toxic doses are left out. Rule for the calls: active = survival T/C of 150% or more; inactive = T/C below 125% in these data.

Test system: P388 leukemia ip, CD2F1 mice, survival T/C
Assay: NCI In Vivo Anticancer Drug Screen. Data for tumor model P388 Leukemia (intraperitoneal) in CD2F1 (CDF1) mice
Settings: endpoint: median survival time, higher = longer survival
Procedure, shortened: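 Mice carrying the transplanted tumor received test compound or vehicle. Survival was recorded in each group, and the value is the treated-group measurement divided by that of the vehicle-treated control group.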

[1] = dose: 60.0 mg/kg/injection, schedule: Q01DX005 (ip), vehicle: saline with Tween-80
[2] = dose: 120.0 mg/kg/injection, schedule: Q01DX005 (ip), vehicle: saline with Tween-80
[3] = dose: 240.0 mg/kg/injection, schedule: Q01DX005 (ip), vehicle: saline with Tween-80
[4] = dose: 50.0 mg/kg/injection, schedule: Q01DX009 (ip), vehicle: saline with Tween-80
[5] = dose: 100.0 mg/kg/injection, schedule: Q01DX009 (ip), vehicle: saline with Tween-80
[6] = dose: 200.0 mg/kg/injection, schedule: Q01DX009 (ip), vehicle: saline with Tween-80
[7] = dose: 200.0 mg/kg/injection, schedule: Q01DX009 (ip), vehicle: saline
[8] = dose: 1.56 mg/kg/injection, schedule: Q01DX009 (ip), vehicle: saline with Tween-80
[9] = dose: 6.25 mg/kg/injection, schedule: Q01DX009 (ip), vehicle: saline with Tween-80

Measured: T/C

COC(=O)c1nnn(-c2ccc(Cl)cc2C)c1N
inactive: [1] 96 % of control | [2] 97 % of control | [3] 91 % of control

O=C(Nc1ccc(NC(=O)Nc2cc(C(F)(F)F)ccc2Oc2ccc(Cl)c(Cl)c2)cc1)Nc1cc(C(F)(F)F)ccc1Oc1ccc(Cl)c(Cl)c1
inactive: dose: 60.0 mg/kg/injection, schedule: Q01DX005 (ip), vehicle: Klucel (hydroxypropylcellulose) (HPC) 91 % of control | dose: 120.0 mg/kg/injection, schedule: Q01DX005 (ip), vehicle: Klucel (hydroxypropylcellulose) (HPC) 98 % of control | dose: 240.0 mg/kg/injection, schedule: Q01DX005 (ip), vehicle: Klucel (hydroxypropylcellulose) (HPC) 94 % of control

COC(=O)[C@@]12OC[C@]34[C@H]([C@@H](O)[C@@H]1O)[C@@]1(C)C=C(OC5OC(CO)C(O)C(O)C5O)C(=O)[C@@H](C)[C@@H]1C[C@H]3OC(=O)[C@H](OC(=O)/C=C(\C)C(C)C)[C@@H]24 (stereo partly drawn)
inactive: dose: 2.0 mg/kg/injection, schedule: Q01DX005 (ip), vehicle: saline + alcohol 100 % of control | dose: 4.0 mg/kg/injection, schedule: Q01DX005 (ip), vehicle: saline + alcohol 94 % of control | dose: 8.0 mg/kg/injection, schedule: Q01DX005 (ip), vehicle: saline + alcohol 94 % of control | dose: 16.0 mg/kg/injection, schedule: Q01DX005 (ip), vehicle: saline + alcohol 106 % of control | dose: 32.0 mg/kg/injection, schedule: Q01DX005 (ip), vehicle: saline + alcohol 111 % of control | dose: 64.0 mg/kg/injection, schedule: Q01DX005 (ip), vehicle: saline + alcohol 108 % of control

CCCCS/C=C1\CCc2cc(OC)ccc2C12CC1=C(CCc3cc(OC)ccc31)C(SCCCC)C2 (stereo not drawn)
inactive: [4] 94 % of control | [5] 88 % of control | [6] 87 % of control

Cc1cc([N+](=O)[O-])c(C)cc1Cl
inactive: dose: 37.5 mg/kg/injection, schedule: Q04DX003 (ip), vehicle: saline sonified 118 % of control | dose: 75.0 mg/kg/injection, schedule: Q04DX003 (ip), vehicle: saline sonified 100 % of control | dose: 150.0 mg/kg/injection, schedule: Q04DX003 (ip), vehicle: saline sonified 118 % of control

C1NNCC12CNNC2
inactive: dose: 100.0 mg/kg/injection, schedule: Q04DX003 (ip), vehicle: suspension in saline 94 % of control | dose: 200.0 mg/kg/injection, schedule: Q04DX003 (ip), vehicle: suspension in saline 94 % of control | dose: 400.0 mg/kg/injection, schedule: Q04DX003 (ip), vehicle: suspension in saline 90 % of control

COc1ccc2c(=O)c(Cc3ccccc3)coc2c1
inactive: [1] 100 % of control | [2] 97 % of control | [3] 100 % of control

CCCCCCCCCCC(OC(C)=O)C1CCC(C2CCC(C(O)CCCCCCCCCCCCC3C=C(C)OC3=O)O2)O1 (stereo not drawn)
inactive: dose: 0.25 mg/kg/injection, schedule: Q01DX005 (ip), vehicle: water 111 % of control | dose: 0.5 mg/kg/injection, schedule: Q01DX005 (ip), vehicle: water 124 % of control

COc1ccc(OC)c(NC(=O)NC(c2ccccc2)c2ccccc2)c1
inactive: dose: 3.12 mg/kg/injection, schedule: Q01DX009 (ip), vehicle: Klucel (hydroxypropylcellulose) (HPC) 96 % of control | dose: 6.25 mg/kg/injection, schedule: Q01DX009 (ip), vehicle: Klucel (hydroxypropylcellulose) (HPC) 90 % of control | dose: 200.0 mg/kg/injection, schedule: Q01DX009 (ip), vehicle: Klucel (hydroxypropylcellulose) (HPC) 93 % of control

COc1nc2ccccc2c2ccnn12
inactive: dose: 4.0 mg/kg/injection, schedule: Q01DX009 (ip), vehicle: saline with Tween-80 106 % of control | dose: 8.0 mg/kg/injection, schedule: Q01DX009 (ip), vehicle: saline with Tween-80 106 % of control | dose: 16.0 mg/kg/injection, schedule: Q01DX009 (ip), vehicle: saline with Tween-80 109 % of control

O=S(=O)(Cc1ccccc1)C1CC1
inactive: dose: 50.0 mg/kg/injection, schedule: Q01DX009 (ip), vehicle: saline 122 % of control | dose: 50.0 mg/kg/injection, schedule: Q01DX009 (ip), vehicle: suspension in saline 104 % of control and 106 % of control | dose: 100.0 mg/kg/injection, schedule: Q01DX009 (ip), vehicle: saline 119 % of control | dose: 100.0 mg/kg/injection, schedule: Q01DX009 (ip), vehicle: suspension in saline 108 % of control and 94 % of control | [7] 118 % of control | dose: 200.0 mg/kg/injection, schedule: Q01DX009 (ip), vehicle: suspension in saline 102 % of control and 97 % of control | dose: 400.0 mg/kg/injection, schedule: Q01DX009 (ip), vehicle: saline 102 % of control | dose: 400.0 mg/kg/injection, schedule: Q01DX009 (ip), vehicle: suspension in saline 100 % of control and 105 % of control

CC(=O)NCCCC(=O)O
inactive: [7] 98 % of control

C[Si](C)(C)C1OC1[Si](C)(C)C (stereo not drawn)
inactive: dose: 50.0 mg/kg/injection, schedule: Q04DX002 (ip), vehicle: other 103 % of control | dose: 100.0 mg/kg/injection, schedule: Q04DX002 (ip), vehicle: other 105 % of control | dose: 200.0 mg/kg/injection, schedule: Q04DX002 (ip), vehicle: other 108 % of control

O=C(Nc1cccc2ccccc12)N1c2ccccc2SC12CCCC2
inactive: [8] 104 % of control | dose: 3.13 mg/kg/injection, schedule: Q01DX009 (ip), vehicle: saline with Tween-80 100 % of control | [9] 99 % of control and 94 % of control

O=C1COC(c2ccccc2O)=NN1CCCN1CCCC1
inactive: dose: 12.5 mg/kg/injection, schedule: Q01DX001 (ip), vehicle: saline 100 % of control | dose: 25.0 mg/kg/injection, schedule: Q01DX001 (ip), vehicle: saline 100 % of control | dose: 50.0 mg/kg/injection, schedule: Q01DX001 (ip), vehicle: saline 107 % of control | dose: 100.0 mg/kg/injection, schedule: Q01DX001 (ip), vehicle: saline 103 % of control

O=S(=O)(CCl)OCCF
inactive: [8] 110 % of control | dose: 3.12 mg/kg/injection, schedule: Q01DX009 (ip), vehicle: saline with Tween-80 102 % of control | [9] 105 % of control and 117 % of control

CC(C)(C)SC#CC(Sc1ccccc1)=C(Sc1ccccc1)Sc1ccccc1
inactive: dose: 100.0 mg/kg/injection, schedule: Q04DX003 (ip), vehicle: saline with Tween-80 100 % of control | dose: 200.0 mg/kg/injection, schedule: Q04DX003 (ip), vehicle: saline with Tween-80 100 % of control | dose: 400.0 mg/kg/injection, schedule: Q04DX003 (ip), vehicle: saline with Tween-80 100 % of control

CC1(C)N=C(N)N=C(N)N1c1ccc(C(C#N)CCCc2ccccc2)cc1 (stereo not drawn)
inactive: dose: 7.5 mg/kg/injection, schedule: Q01DX005 (ip), vehicle: Klucel (hydroxypropylcellulose) (HPC) 100 % of control | dose: 15.0 mg/kg/injection, schedule: Q01DX005 (ip), vehicle: Klucel (hydroxypropylcellulose) (HPC) 101 % of control | dose: 30.0 mg/kg/injection, schedule: Q01DX005 (ip), vehicle: Klucel (hydroxypropylcellulose) (HPC) 103 % of control

CCCCNC(=O)CCC
inactive: [4] 88 % of control | [5] 94 % of control | [6] 95 % of control | dose: 400.0 mg/kg/injection, schedule: Q01DX009 (ip), vehicle: saline with Tween-80 97 % of control

CC(C)c1ccc(O)c(O)c1
inactive: dose: 25.0 mg/kg/injection, schedule: Q01DX009 (ip), vehicle: saline with Tween-80 113 % of control | [4] 113 % of control | [5] 111 % of control

CN(C)NC=O
inactive: dose: 60.0 mg/kg/injection, schedule: Q01DX005 (ip), vehicle: saline 102 % of control | dose: 120.0 mg/kg/injection, schedule: Q01DX005 (ip), vehicle: saline 102 % of control | dose: 240.0 mg/kg/injection, schedule: Q01DX005 (ip), vehicle: saline 114 % of control

O=C1C(Cl)=C(Nc2cc(Cl)ccc2Cl)C(=O)c2ccccc21
inactive: [1] 98 % of control | [2] 102 % of control | [3] 101 % of control

CCC(c1ccc(OCC(=O)OCCNCCCl)cc1)C(CC)c1ccc(OCC(=O)OCCNCCCl)cc1 (stereo not drawn)
inactive: dose: 25.0 mg/kg/injection, schedule: Q04DX002 (ip), vehicle: saline 101 % of control | dose: 50.0 mg/kg/injection, schedule: Q04DX002 (ip), vehicle: saline 97 % of control | dose: 100.0 mg/kg/injection, schedule: Q04DX002 (ip), vehicle: saline 101 % of control | dose: 100.0 mg/kg/injection, schedule: Q04DX002 (ip), vehicle: suspension in saline 97 % of control | dose: 200.0 mg/kg/injection, schedule: Q04DX002 (ip), vehicle: suspension in saline 87 % of control
